Data: patent US6986993B1, “System for cell-based screening” (Cellomics, Inc., priority 1999, dated 2006)
Read-outs that look alike come from different tables or passages of the source.

How the values were obtained:
[1] = tested on: PC12 cells; assay: cells; details: Rattus norvegicus, PC-12, read-out: IC50 (50% inhibitory concentration) for dopamine toxicity to neurites
[2] = tested on: PC12 cells; details: 3 hours, 8 wells
[3] = tested on: glioblastoma cell line (SNB-19); assay: High-content screen of drug-induced apoptosis, SNB-19 cells; assay type: cell-based; details: 26 h
Protocol: Cell preparation. The cells chosen for this study were mouse connective tissue fibroblasts (L-929; ATCC CCL-1) and a highly invasive glioblastoma cell line (SNB-19; ATCC CRL-2219) (Welch et al., In Vitro Cell. Dev. Biol. 31:610, 1995). The day before treatment with an apoptosis inducing drug, 3500 cells were placed into each well of a 96-well plate and incubated overnight at 37° C. in a humidified 5% CO2 atmosphere. The following day, the culture medium was removed from each well and replaced with fresh medium containing various concentrations of paclitaxel (0–50 μM) from a 20 mM stock made in DMSO. The maximal concentration of DMSO used in these experiments was 0.25%. The cells were then incubated for 26 h as above. […]
(§1) Image acquisition and analysis on the ArrayScan System. The fluorescence intensity of intracellular MITOTRACKER® Red, Hoechst 33342, and BODIPY® FL phallacidin was measured with the cell screening system as described supra. […]
Calculations and output. A total of 50–250 cells were measured per image field. For each field of cells, the following calculations were performed: (1) The average nuclear area (μm^2) was calculated by dividing the total nuclear area in a field by the number of nuclei detected. (2) The average nuclear perimeter (μm) was calculated by dividing the sum of the perimeters of all nuclei in a field by the number of nuclei detected in that field. […]

[4] = tested on: mouse connective tissue fibroblasts (L-929); assay: High-content screen of drug-induced apoptosis, L-929 cells; assay type: cell-based
Protocol: Cell preparation. The cells chosen for this study were mouse connective tissue fibroblasts (L-929; ATCC CCL-1) and a highly invasive glioblastoma cell line (SNB-19; ATCC CRL-2219) (Welch et al., In Vitro Cell. Dev. Biol. 31:610, 1995). The day before treatment with an apoptosis inducing drug, 3500 cells were placed into each well of a 96-well plate and incubated overnight at 37° C. in a humidified 5% CO2 atmosphere. The following day, the culture medium was removed from each well and replaced with fresh medium containing various concentrations of paclitaxel (0–50 μM) from a 20 mM stock made in DMSO. The maximal concentration of DMSO used in these experiments was 0.25%. The cells were then incubated for 26 h as above. At the end of the paclitaxel treatment period, each well received fresh medium containing 750 nM MITOTRACKER® Red (Molecular Probes; Eugene, Oreg.) and 3 μg/ml Hoechst 33342 DNA-binding dye (Molecular Probes) and was incubated as above for 20 min. Each well on the plate was then washed with HBSS and fixed with 3.7% formaldehyde in HBSS for 15 min at room temperature. The formaldehyde was washed out with HBSS and the cells were permeabilized for 90 s with 0.5% (v/v) Triton X-100, washed with HBSS, incubated with 2 U ml^−1 BODIPY® FL phallacidin (Molecular Probes) for 30 min, and washed with HBSS. The wells on the plate were then filled with 200 μl HBSS, sealed, and the plate stored at 4° C. if Go necessary.
as §1
Calculations and output. A total of 50–250 cells were measured per image field. For each field of cells, the following calculations were performed: (1) The average nuclear area (μm^2) was calculated by dividing the total nuclear area in a field by the number of nuclei detected. (2) The average nuclear perimeter (μm) was calculated by dividing the sum of the perimeters of all nuclei in a field by the number of nuclei detected in that field. […] (3) The average nuclear brightness was calculated by dividing the integrated intensity of the entire field of nuclei by the number of nuclei in that field. […] (4) The average cellular brightness was calculated by dividing the integrated intensity of an entire field of cells stained with MITOTRACKER® dye by the number of nuclei in that field. […] (5) The average cellular brightness was also calculated by dividing the integrated intensity of an entire field of cells stained with BODIPY® FL phallacidin dye by the number of nuclei in that field. […]

[5] = tested on: NF-KB transcription factor; assay: NF-KB cytoplasm to nucleus translocation screen (NucCyt Difference); assay type: cell-based; details: human cell line, wells titrated with IL-1; FIG. 16
Protocol: The distribution of the transcription factor is determined by labeling the nuclei with a DNA specific fluorophore like […] and the transcription factor with a specific fluorescent antibody. After autofocusing on the Hoechst labeled nuclei, an image of the nuclei is acquired in the cell-based screening system and used to create a mask by one of several optional thresholding methods, as described supra. The morphological descriptors of the regions defined by the mask are compared with the user defined parameters and valid nuclear masks are identified and used with the following method to extract transcription factor distributions. Each valid nuclear mask is eroded to define a slightly smaller nuclear region. The original nuclear mask is then dilated in two steps to define a ring shaped region around the nucleus, which represents a cytoplasmic region. The average antibody fluorescence in each of these two regions is determined, and the difference between these averages is defined as the NucCyt Difference. […] Using these two sampling regions, data on nuclear translocation can be automatically analyzed by the cell-based screening system on a cell by cell basis. […]

## NCCc1ccc(O)c(O)c1 [dopamine]
[1]
  IC50: 460 µM
[2]; dopamine 0.05 mM
  Neurite Outgrowth Index (mean +/− standard deviation): 43 +/− 4%
[2]; dopamine 0.1 mM
  Neurite Outgrowth Index (mean +/− standard deviation): 37 +/− 3%
[2]; dopamine 0.2 mM
  Neurite Outgrowth Index (mean +/− standard deviation): 37 +/− 3%
[2]; dopamine 0.4 mM
  Neurite Outgrowth Index (mean +/− standard deviation): 25 +/− 3%
[2]; dopamine 0.8 mM
  Neurite Outgrowth Index (mean +/− standard deviation): 17 +/− 2%
[2]; dopamine 1.6 mM
  Neurite Outgrowth Index (mean +/− standard deviation): 11 +/− 2%

## CC(=O)O[C@H]1C(=O)[C@@]2(C)[C@H]([C@H](OC(=O)c3ccccc3)[C@]3(O)C[C@H](OC(=O)[C@H](O)[C@@H](NC(=O)c4ccccc4)c4ccccc4)C(C)=C1C3(C)C)[C@]1(OC(C)=O)CO[C@@H]1C[C@@H]2O [paclitaxel]
[3]
  Concentration at which area, brightness and fragmentation of the nucleus and actin polymerization reached a maximum value: 10 nM
  Concentration at which mitochondrial potential was minimal: 10 nM
[4]; L-929 cells, 26 h
  Concentration giving maximal response in many parameters: 5 µM
[4]; L-929 cells, all concentrations tested (0–50 μM)
  Mitochondrial potential: did not show a sharp decrease in mitochondrial potential
[4]; L-929 cells, increasing amounts, 26 h, FIG. 24
  Nuclear morphology: caused nuclei to enlarge and fragment
[4]; L-929 versus SNB-19
  Dose for maximal response in L-929 relative to SNB-19 cells: 500 fold

B1: IL-1: a known inducer of the NF-KB transcription factor (protein, UniProt P01583 113-271, looked up)
Interleukin-1 alpha: SAPFSFLSNVKYNFMRIIKYEFILNDALNQSIIRANDQYLTAAALHNLDEAVKFDMGAYKSSKDDAKITVILRISKTQLYVTAQDEDQPVLLKEMPEIPKTITGSETNLLFFWETHGTKNYFTSVAHPNLFIATKQDYWVCLAGGPPSITDFQILENQA
[5]
  NucCyt Difference (NF-KB nuclear translocation) versus amount of agonist: strongly correlated with the amount of agonist added to the wells
